From BindingDB's records for doi:10.1021/jm00172a024 (Rorer Central Research, 1990)
pKi: −log10 of the molar value.

Molecular target: Cysteinyl leukotriene receptor 1 (Cavia porcellus)
Assay: In vitro binding affinity against Cysteinyl leukotriene D4 receptor from guinea pig lung membrane

pKi: 7.96
SMILES: CCCC(CCc1nnn[nH]1)Cc1ccc(OCc2ccc3ccccc3n2)cc1 (stereo unspecified)
